Reference: US9732094B2, “Arylquinazolines” (Merck Patent GmbH, priority 2013, dated 2017)
Where two headings read alike, the source gives them in different places.

Experiments:
[1] = molecular target: DNA-PK (Homo sapiens (Human), UniProt P78527); test: DNA-PK assay (biochemical), flashplate 33P-ATP kinase assay; details: enzymatic; 5 μM ATP
In short: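 Radiometric kinase reaction in streptavidin-coated flashplates, stopped with 200 mM EDTA, then 30 min room-temperature incubation and saline washes.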

[2] = molecular target: DNA-PK phosphorylation at serine 2056 (Homo sapiens (Human), UniProt P78527); test: DNA-PK phosphorylation at serine 2056 (cellular), bleomycin-treated HCT116 cells, ELISA; assay type: cell-based; details: cellular; HCT116 cells, 10 μM bleomycin, six hours; read-out: IC50 pDNA-PK
In short: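 HCT116, MEM alpha + 10% FCS, 37 °C/10% CO2, seeded o/n. Cpd + 10 μM bleomycin, 6 h. ELISA, chemiluminescence; phospho/total DNA-PKcs ratio, DMSO = blank.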

[3] = molecular target: Kv11.1 (hERG) (Homo sapiens (Human), UniProt Q12809); test: Kv11.1 (hERG) ion channel activity (patch clamp assay), HEK293 cells transfected with hERG gene; details: patch clamp, HEK293 transfected with hERG gene
Kv11.1 (hERG), sequence (Q12809 whole entry): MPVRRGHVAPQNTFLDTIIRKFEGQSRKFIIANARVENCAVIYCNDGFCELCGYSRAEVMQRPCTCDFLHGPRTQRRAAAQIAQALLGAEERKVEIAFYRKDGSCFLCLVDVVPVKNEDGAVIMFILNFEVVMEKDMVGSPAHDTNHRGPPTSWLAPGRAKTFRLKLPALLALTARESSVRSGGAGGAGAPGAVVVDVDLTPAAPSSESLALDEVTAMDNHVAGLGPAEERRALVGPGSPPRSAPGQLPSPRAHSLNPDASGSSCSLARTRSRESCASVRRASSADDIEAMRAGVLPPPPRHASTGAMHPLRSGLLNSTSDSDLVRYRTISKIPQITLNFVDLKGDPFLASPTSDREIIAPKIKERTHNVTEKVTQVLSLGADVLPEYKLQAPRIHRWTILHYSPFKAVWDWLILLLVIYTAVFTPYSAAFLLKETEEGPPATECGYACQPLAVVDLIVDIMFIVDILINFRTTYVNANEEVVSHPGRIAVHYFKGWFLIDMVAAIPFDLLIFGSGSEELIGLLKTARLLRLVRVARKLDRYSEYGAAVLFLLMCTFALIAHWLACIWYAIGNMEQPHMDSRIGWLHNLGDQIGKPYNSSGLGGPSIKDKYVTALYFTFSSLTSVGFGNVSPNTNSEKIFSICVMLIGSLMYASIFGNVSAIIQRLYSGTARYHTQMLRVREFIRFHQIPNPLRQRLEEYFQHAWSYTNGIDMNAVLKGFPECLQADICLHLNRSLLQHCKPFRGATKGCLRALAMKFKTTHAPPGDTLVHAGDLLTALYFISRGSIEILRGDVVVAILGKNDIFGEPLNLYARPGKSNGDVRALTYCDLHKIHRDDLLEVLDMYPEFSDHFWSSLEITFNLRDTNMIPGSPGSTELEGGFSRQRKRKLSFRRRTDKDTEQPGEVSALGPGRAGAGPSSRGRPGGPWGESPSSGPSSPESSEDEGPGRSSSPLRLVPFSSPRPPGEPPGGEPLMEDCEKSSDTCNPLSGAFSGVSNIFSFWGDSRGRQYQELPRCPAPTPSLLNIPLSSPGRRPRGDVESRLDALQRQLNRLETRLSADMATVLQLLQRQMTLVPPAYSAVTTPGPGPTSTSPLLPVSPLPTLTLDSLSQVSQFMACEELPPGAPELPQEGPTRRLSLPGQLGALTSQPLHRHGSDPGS

SMILES | IC50 [1] | IC50 [2] | Ki ([3]; Ki [Kv1.11 hERG]) | Ki ([3]; read-out: Ki [Kv1.11 hERG]) | Ki ([3]; human, HEK293 cells stably transfected with the hERG gene, Ki [Kv1.11 hERG])
OC(c1ccc(F)c(-c2ncnc3cc(N4CCOCC4)ccc23)c1)c1c(F)cncc1Cl (stereo not drawn) [Example 77, (3-Chloro-5-fluoro-pyridin-4-yl)-[4-fluoro-3-(7-morpholin-4-yl-quinazolin-4-yl)phenyl]-methanol] | 0.003 to 0.007 µM | < 0.5 µM | 10 to 15 µM |  | 
Cc1nccnc1C(O)c1ccc(F)c(-c2ncnc3cc(N4CCOCC4)ccc23)c1 (stereo not drawn) [Example 78, [4-Fluoro-3-(7-morpholin-4-yl-quinazolin-4-yl)phenyl]-(3-methylpyrazin-2-yl)-methanol] | 0.003 to 0.007 µM | < 0.5 µM | 15 to 25 µM |  | 
CCOc1cnnc(C(O)c2ccc(F)c(-c3ncnc4cc(N5CCOCC5)ccc34)c2)c1 (stereo not drawn) [Example 79, (5-Ethoxypyridazin-3-yl)-[4-fluoro-3-(7-morpholin-4-yl-quinazolin-4-yl)phenyl]-methanol] | > 0.03 µM | 5 to 10 µM | 15 to 25 µM |  | 
OC(c1ccc(F)c(-c2ncnc3cc(N4CCOCC4)ccc23)c1)c1ncccc1C(F)(F)F (stereo not drawn) [Example 80, [4-Fluoro-3-(7-morpholin-4-yl-quinazolin-4-yl)-phenyl]-(3-trifluoro-methylpyridin-2-yl)-methanol] | 0.003 to 0.007 µM | 0.5 to 5 µM |  | > 25 µM | 
OC(c1ccc(F)c(-c2ncnc3cc(N4CCOCC4)ccc23)c1)c1ncccc1OC(F)F (stereo not drawn) [Example 81, (3-Difluoromethoxy-pyridin-2-yl)-[4-fluoro-3-(7-morpholin-4-yl-quinazolin-4-yl)-phenyl]methanol] | < 0.003 µM | < 0.5 µM |  | > 25 µM | 
Cc1nccnc1[C@@H](O)c1ccc(F)c(-c2ncnc3cc(N4CCOCC4)ccc23)c1 [Example 82] | 0.007 to 0.03 µM | 0.5 to 5 µM |  | > 25 µM | 
Cc1nccnc1[C@H](O)c1ccc(F)c(-c2ncnc3cc(N4CCOCC4)ccc23)c1 [Example 83, (R)-[4-Fluoro-3-(7-morpholin-4-yl-quinazolin-4-yl)-phenyl]-(3-methyl-pyrazin-2-yl)methanol] | < 0.003 µM | < 0.5 µM |  | > 25 µM | 
Cc1nccnc1[C@H](O)c1cc(-c2ncnc3cc(N4CCOCC4)ccc23)c(F)cc1F [Example 84, [2,4-Difluoro-5-(7-morpholin-4-yl-quinazolin-4-yl)-phenyl]-(3-methyl-pyrazin-2-yl)methanol] | 0.003 to 0.007 µM | < 0.5 µM |  |  | 15 to 25 µM
Cc1nccnc1C(O)c1cc(-c2ncnc3cc(N4CCOCC4)ccc23)c(F)cc1F (stereo not drawn) [Example 86] | < 0.003 µM | < 0.5 µM |  | > 25 µM | 
COc1cncnc1C(O)c1ccc(F)c(-c2ncnc3cc(N4CCOCC4)ccc23)c1 (stereo not drawn) [Example 87, [4-Fluoro-3-(7-morpholin-4-yl-quinazolin-4-yl)-phenyl]-(5-methoxy-pyrimidin-4-yl)-methanol] | < 0.003 µM | < 0.5 µM | 15 to 25 µM |  | 
Cc1cnc(C)c(C(O)c2cc(-c3ncnc4cc(N5CCOCC5)ccc34)c(F)cc2F)n1 (stereo not drawn) [Example 88] | < 0.003 µM | < 0.5 µM | 15 to 25 µM |  | 
OC(c1cc(-c2ncnc3cc(N4CCOCC4)ccc23)ccc1Cl)c1ncnc2ccsc12 (stereo not drawn) [Example 89, [2-Chloro-5-(7-morpholin-4-yl-quinazolin-4-yl)-phenyl]thieno[3,2-d}-pyrimidin-4-ylmethanol] | 0.003 to 0.007 µM | < 0.5 µM | 10 to 15 µM |  | 
OC(c1cc(-c2ncnc3cc(N4CCOCC4)ccc23)c(F)cc1F)c1ncnc2sccc12 (stereo not drawn) [Example 90, [2,4-Difluoro-5-(7-morpholin-4-yl-quinazolin-4-yl)-phenyl]thieno[2,3-d}-pyrimidin-4-ylmethanol] | < 0.003 µM | < 0.5 µM |  | > 25 µM | 
Cn1c(C(O)c2ccc(F)c(-c3ncnc4cc(N5CCOCC5)ccc34)c2)cccc1=O (stereo not drawn) [Example 91, 6-{[4-Fluoro-3-(7-morpholin-4-yl-quinazolin-4-yl)-phenyl]hydroxy-methyl}-1-methyl-1H-pyridin-2-one] | < 0.003 µM | < 0.5 µM |  | > 25 µM | 
O=c1ccc(C(O)c2cc(-c3ncnc4cc(N5CCOCC5)ccc34)c(F)cc2Cl)n[nH]1 (stereo not drawn) [Example 92, 3-[[2-Chloro-4-fluoro-5-(7-morpholino-quinazolin-4-yl)phenyl]-hydroxymethyl]-1H-pyridazin-6-one] | < 0.003 µM | < 0.5 µM |  | > 25 µM | 
CCn1nc(C(O)c2cc(-c3ncnc4cc(N5CCOCC5)ccc34)c(F)cc2Cl)ccc1=O (stereo not drawn) [Example 93, 6-{[2-Chloro-4-fluoro-5-(7-morpholin-4-yl-quinazolin-4-y1)phenyl]-hydroxymethyl}-2-ethyl-2H-pyridazin-3-one] | 0.003 to 0.007 µM | < 0.5 µM | 10 to 15 µM |  | 
NCCn1nc(C(O)c2cc(-c3ncnc4cc(N5CCOCC5)ccc34)c(F)cc2Cl)ccc1=O (stereo not drawn) [Example 94, 2-(2-Amino-ethyl)-6-{[2-Chloro-4-fluoro-5-(7-morpholin-4-yl-quinazolin-4-yl)phenyl]-hydroxymethyl}-2H-pyridazin-3-one] | 0.007 to 0.03 µM | 10 to 30 µM |  | > 25 µM | 
O=c1ccc(C(O)c2cc(-c3ncnc4cc(N5CCOCC5)ccc34)c(F)cc2Cl)nn1C1CC1 (stereo not drawn) [Example 95, 6-{[2-Chloro-4-fluoro-5-(7-morpholin-4-yl-quinazolin-4-yl)phenyl]-hydroxymethyl}-2-cyclopropyl-2H-pyridazin-3-one] | 0.007 to 0.03 µM | 0.5 to 5 µM |  | > 25 µM | 
CCn1nc(C(O)c2cc(-c3ncnc4cc(N5CCOCC5)ccc34)c(F)cc2Cl)ccc1=O (stereo not drawn) [Example 96, 6{[2-Chloro-4-fluoro-5-(7-morpholin-4-yl-quinazolin-4-yl)phenyl]-hydroxymethyl}-2-ethyl-2H-pyridazin-3-one] | 0.007 to 0.03 µM | 0.5 to 5 µM |  | > 25 µM | 
CCn1nc(C(O)c2cc(-c3ncnc4cc(N5CCOCC5)ccc34)c(F)cc2Cl)ccc1=O (stereo not drawn) [Example 97, 6-{[2-Chloro-4-fluoro-5-(7-morphohn-4-yl-quinazolin-4-yl)phenyl]-hydroxymethyl}-2-ethyl-2H-pyridazin-3-one] | < 0.003 µM | 0.5 to 5 µM |  | > 25 µM | 
NC(=O)Cn1nc(C(O)c2cc(-c3ncnc4cc(N5CCOCC5)ccc34)c(F)cc2Cl)ccc1=O (stereo not drawn) [Example 98, 2-{3-{[2-Chloro-4-fluoro-5-(7-morpholin-4-ylquinazolin-4-yl)-phenyl]hydroxymethyl}-6-oxo-6H-pyridazin-1-yl)acetamide] | 0.003 to 0.007 µM | 10 to 30 µM |  | > 25 µM | 
O=c1ccc(C(O)c2cc(-c3ncnc4cc(N5CCOCC5)ccc34)c(F)cc2Cl)nn1CCO (stereo not drawn) [Example 99, 6-{[2-Chloro-4-fluoro-5-(7-morpholin-4-yl-quinazolin-4-yl)phenyl]-hydroxymethyl}-2-(2-hydroxy-ethyl)-2H-pyridazin-3-one] | 0.003 to 0.007 µM | 0.5 to 5 µM |  | > 25 µM | 
CC(C#N)Oc1ccc(C(O)c2cc(-c3ncnc4cc(N5CCOCC5)ccc34)c(F)cc2Cl)nn1 (stereo not drawn) [Example 101, 2-(6-{[2-Chloro-4-fluoro-5-(7-morpholin-4-yl-quinazolin-4-yl)-phenyl)hydroxy-methyl}pyridazin-3-yloxy)propionitrile] | < 0.003 µM | < 0.5 µM | 10 to 15 µM |  | 
OCCOc1nccnc1C(O)c1ccc(F)c(-c2ncnc3cc(N4CCOCC4)ccc23)c1 (stereo not drawn) [Example 105, 2-(3-{[4-fluoro-3-(7-morpholin-4-yl-quinazolin-4-yl)-phenyl]hydroxy-methyl}pyrazin-2-yl-oxy)ethanol] | 0.007 to 0.03 µM | 10 to 30 µM |  | > 25 µM | 
OCCNc1nccnc1C(O)c1ccc(F)c(-c2ncnc3cc(N4CCOCC4)ccc23)c1 (stereo not drawn) [Example 106, 2-(3-{[4-fluoro-3-(7-morpholin-4-yl-quinazolin-4-yl)-phenyl]hydroxy-methyl}pyrazin-2-yl-amino)ethanol] | 0.007 to 0.03 µM | 5 to 10 µM | 15 to 25 µM |  | 
N#CCCOc1ccc(C(O)c2cc(-c3ncnc4cc(N5CCOCC5)ccc34)c(F)cc2Cl)nn1 (stereo not drawn) [Example 107, 3-(6-{[2-Chloro-4-fluoro-5-(7-morpholin-4-yl-quinazolin-4-yl)-phenyl]hydroxy-methyl}pyridazin-3-yl-oxy)propionitrile] | 0.003 to 0.007 µM | 0.5 to 5 µM |  | > 25 µM | 
CSc1ccc(C(O)c2cc(-c3ncnc4cc(N5CCOCC5)ccc34)c(F)cc2Cl)nn1 (stereo not drawn) [Example 108, [2-Chloro-4-fluoro-5-(7-morpholin-4-yl-quinazolin-4-yl)-phenyl]-(6-methyl-sulfanylpyridazin-3-yl)methanol] | 0.003 to 0.007 µM | < 0.5 µM | 15 to 25 µM |  | 
COc1cc(C)c(C(O)c2cc(-c3ncnc4cc(N5CCOCC5)ccc34)c(F)cc2Cl)nn1 (stereo not drawn) [Example 109, [2-Chloro-4-fluoro-5-(7-morpholin-4-yl-quinazolin-4-yl)-phenyl]-(6-methoxy-4-methylpyridazin-3-yl)methanol] | > 0.03 µM | 5 to 10 µM |  | > 25 µM | 
COc1nnc(C(O)c2cc(-c3ncnc4cc(N5CCOCC5)ccc34)c(F)cc2Cl)cc1C (stereo not drawn) [Example 110, [2-Chloro-4-fluoro-5-(7-morpholin-4-yl-quinazolin-4-yl)-phenyl]-(6-methoxy-5-methylpyridazin-3-yl)methanol] | 0.007 to 0.03 µM | 0.5 to 5 µM | 10 to 15 µM |  | 
